This note sets out measurements from article PMC8550792, “Evolution of kinase polypharmacology across HSP90 drug discovery” (Cell Chemical Biology, 2021).

What all share (experiment): biochemical
Common to all, as to assay type: biochemical

Experiment [1] has as its target T1, 382 unique human kinases (Homo sapiens, UniProt Q9HBY8).
T1 construct: purchased Reaction Biology (HotSpot contract assay)
T1 sequence (Q9HBY8 1-367): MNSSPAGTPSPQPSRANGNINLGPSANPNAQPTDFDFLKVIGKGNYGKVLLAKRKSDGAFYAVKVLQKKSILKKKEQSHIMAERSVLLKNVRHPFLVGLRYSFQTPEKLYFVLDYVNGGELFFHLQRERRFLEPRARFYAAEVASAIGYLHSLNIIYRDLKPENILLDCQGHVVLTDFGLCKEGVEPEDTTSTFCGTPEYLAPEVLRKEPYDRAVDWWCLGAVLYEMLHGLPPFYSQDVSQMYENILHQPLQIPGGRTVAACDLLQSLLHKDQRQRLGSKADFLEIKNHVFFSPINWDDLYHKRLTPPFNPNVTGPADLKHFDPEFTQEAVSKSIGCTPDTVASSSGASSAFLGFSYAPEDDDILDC
To be noted: kinase SGK2, compound 10 uM; for remaining activity at 10 µM: read-out: % Enzyme Activity (relative to DMSO controls).

For experiment [2], the target named is T2, 382 unique human kinases (Homo sapiens, UniProt P00533, L858R/T790M).
T2 construct: purchased Reaction Biology (HotSpot contract assay)
The note with it: EGFR (L858R, T790M), 10 uM; for remaining activity at 10 µM: read-out: % Enzyme Activity (relative to DMSO controls).

The target in experiment [3] is T3, 382 unique human kinases (Homo sapiens, UniProt P22612).
T3 construct: purchased Reaction Biology (HotSpot contract assay)
T3 sequence (P22612 whole entry): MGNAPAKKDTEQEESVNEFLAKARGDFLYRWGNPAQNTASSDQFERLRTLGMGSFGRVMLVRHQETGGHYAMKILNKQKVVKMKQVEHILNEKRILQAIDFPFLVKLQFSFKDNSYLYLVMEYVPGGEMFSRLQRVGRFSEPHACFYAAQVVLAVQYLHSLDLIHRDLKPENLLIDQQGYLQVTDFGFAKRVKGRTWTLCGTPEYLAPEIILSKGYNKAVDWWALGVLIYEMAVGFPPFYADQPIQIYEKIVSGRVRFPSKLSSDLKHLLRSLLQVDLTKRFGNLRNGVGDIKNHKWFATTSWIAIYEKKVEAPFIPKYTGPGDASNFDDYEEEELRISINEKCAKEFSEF
To be noted: kinase PKAcg, compound 10 uM; for remaining activity at 10 µM: read-out: % Enzyme Activity (relative to DMSO controls).

The target in experiment [4] is T4, 382 unique human kinases (Homo sapiens, UniProt Q96QT4).
T4 construct: purchased Reaction Biology (HotSpot contract assay)
To be noted: kinase TRPM7/CHAK1, compound 10 uM; for remaining activity at 10 µM: read-out: % Enzyme Activity (relative to DMSO controls).

The target of experiment [5] is T5, 382 unique human kinases (Homo sapiens, UniProt P19525).
T5 construct: purchased Reaction Biology (HotSpot contract assay)
T5 sequence (P19525 whole entry): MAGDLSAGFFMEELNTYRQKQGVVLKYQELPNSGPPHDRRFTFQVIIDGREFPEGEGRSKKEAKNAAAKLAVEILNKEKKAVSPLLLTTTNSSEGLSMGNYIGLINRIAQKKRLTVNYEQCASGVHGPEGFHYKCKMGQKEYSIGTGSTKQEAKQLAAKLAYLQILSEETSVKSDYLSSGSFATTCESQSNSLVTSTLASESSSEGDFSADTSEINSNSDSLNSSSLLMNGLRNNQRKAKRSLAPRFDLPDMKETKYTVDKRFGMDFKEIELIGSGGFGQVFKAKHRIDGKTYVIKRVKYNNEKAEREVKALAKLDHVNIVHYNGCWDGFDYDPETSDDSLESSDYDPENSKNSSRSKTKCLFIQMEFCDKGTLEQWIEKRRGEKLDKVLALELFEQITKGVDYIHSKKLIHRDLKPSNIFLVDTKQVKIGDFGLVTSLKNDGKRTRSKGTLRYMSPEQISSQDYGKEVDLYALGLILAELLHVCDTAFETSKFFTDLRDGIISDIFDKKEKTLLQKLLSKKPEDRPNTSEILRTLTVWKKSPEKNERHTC
To be noted: kinase EIF2AK2, compound 10 uM; for remaining activity at 10 µM: read-out: % Enzyme Activity (relative to DMSO controls).

Experiment [6] addresses T6, 382 unique human kinases (Homo sapiens, UniProt Q99986).
T6 construct: purchased Reaction Biology (HotSpot contract assay)
T6 sequence (Q99986 1-396): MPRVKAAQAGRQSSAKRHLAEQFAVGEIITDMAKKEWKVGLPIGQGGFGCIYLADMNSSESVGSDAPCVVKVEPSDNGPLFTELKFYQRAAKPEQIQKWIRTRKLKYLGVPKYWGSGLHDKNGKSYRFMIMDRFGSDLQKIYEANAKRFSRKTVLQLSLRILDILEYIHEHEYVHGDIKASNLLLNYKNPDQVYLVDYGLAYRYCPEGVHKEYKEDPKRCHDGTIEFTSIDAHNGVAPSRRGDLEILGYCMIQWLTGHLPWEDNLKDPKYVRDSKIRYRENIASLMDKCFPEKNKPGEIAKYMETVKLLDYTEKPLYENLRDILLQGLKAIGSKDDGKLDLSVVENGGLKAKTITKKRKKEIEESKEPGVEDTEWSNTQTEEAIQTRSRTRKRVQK
To be noted: VRK1, 10 uM; for remaining activity at 10 µM: read-out: % Enzyme Activity (relative to DMSO controls).

For experiment [7], the target named is T7, 382 unique human kinases (Homo sapiens, UniProt Q15139).
T7 construct: purchased Reaction Biology (HotSpot contract assay)
T7 sequence (Q15139 1-912): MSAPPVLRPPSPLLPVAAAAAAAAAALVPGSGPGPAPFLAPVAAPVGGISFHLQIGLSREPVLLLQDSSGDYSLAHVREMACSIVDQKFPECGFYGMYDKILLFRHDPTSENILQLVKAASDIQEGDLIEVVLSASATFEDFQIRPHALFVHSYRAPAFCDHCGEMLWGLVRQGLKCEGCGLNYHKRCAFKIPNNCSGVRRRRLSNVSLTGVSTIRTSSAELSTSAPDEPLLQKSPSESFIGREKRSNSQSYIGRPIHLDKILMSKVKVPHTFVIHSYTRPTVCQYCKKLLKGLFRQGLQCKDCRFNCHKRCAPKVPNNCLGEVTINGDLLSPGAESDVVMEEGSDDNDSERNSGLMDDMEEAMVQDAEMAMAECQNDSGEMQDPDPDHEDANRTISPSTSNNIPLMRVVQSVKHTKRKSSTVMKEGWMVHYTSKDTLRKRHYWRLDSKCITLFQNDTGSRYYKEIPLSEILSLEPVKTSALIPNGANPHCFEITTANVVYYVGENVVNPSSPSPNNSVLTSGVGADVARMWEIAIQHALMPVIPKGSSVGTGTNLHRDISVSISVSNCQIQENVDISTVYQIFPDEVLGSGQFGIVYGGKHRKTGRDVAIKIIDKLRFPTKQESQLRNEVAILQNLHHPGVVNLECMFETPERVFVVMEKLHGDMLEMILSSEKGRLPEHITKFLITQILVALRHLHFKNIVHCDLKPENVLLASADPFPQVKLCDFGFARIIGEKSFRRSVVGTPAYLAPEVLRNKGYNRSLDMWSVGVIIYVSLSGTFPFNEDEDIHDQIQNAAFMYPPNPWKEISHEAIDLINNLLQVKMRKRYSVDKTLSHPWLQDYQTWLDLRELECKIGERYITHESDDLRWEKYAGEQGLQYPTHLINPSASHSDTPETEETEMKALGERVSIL
The note with it: PKCmu/PRKD1, 10 uM; for remaining activity at 10 µM: read-out: % Enzyme Activity (relative to DMSO controls).

The target of experiment [8] is T8, 382 unique human kinases (Homo sapiens, UniProt Q06187, P190K).
T8 construct: purchased Reaction Biology (HotSpot contract assay)
T8 sequence (Q06187 whole entry P190K): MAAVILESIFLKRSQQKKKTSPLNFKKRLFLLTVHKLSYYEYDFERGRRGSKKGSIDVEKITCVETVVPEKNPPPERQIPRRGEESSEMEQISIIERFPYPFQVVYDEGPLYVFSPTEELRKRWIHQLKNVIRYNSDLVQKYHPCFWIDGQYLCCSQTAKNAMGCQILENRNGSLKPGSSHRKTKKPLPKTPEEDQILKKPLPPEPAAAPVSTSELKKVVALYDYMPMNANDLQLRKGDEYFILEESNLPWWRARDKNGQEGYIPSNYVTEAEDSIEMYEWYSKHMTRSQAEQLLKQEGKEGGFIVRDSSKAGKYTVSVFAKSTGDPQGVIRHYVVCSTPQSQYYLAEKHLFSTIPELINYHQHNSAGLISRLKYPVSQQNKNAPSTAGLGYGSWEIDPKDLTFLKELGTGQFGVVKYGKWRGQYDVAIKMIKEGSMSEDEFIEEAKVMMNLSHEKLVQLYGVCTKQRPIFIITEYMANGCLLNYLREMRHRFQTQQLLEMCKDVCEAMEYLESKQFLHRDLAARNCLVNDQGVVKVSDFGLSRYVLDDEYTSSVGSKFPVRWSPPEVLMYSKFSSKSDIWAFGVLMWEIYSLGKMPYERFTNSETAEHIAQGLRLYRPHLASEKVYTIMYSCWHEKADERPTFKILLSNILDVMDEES
To be noted: BTK (P190K), 10 uM; for remaining activity at 10 µM: read-out: % Enzyme Activity (relative to DMSO controls).

In experiment [9] the target is T9, 382 unique human kinases (Homo sapiens, UniProt Q9Y572).
T9 construct: purchased Reaction Biology (HotSpot contract assay)
T9 sequence (Q9Y572 whole entry): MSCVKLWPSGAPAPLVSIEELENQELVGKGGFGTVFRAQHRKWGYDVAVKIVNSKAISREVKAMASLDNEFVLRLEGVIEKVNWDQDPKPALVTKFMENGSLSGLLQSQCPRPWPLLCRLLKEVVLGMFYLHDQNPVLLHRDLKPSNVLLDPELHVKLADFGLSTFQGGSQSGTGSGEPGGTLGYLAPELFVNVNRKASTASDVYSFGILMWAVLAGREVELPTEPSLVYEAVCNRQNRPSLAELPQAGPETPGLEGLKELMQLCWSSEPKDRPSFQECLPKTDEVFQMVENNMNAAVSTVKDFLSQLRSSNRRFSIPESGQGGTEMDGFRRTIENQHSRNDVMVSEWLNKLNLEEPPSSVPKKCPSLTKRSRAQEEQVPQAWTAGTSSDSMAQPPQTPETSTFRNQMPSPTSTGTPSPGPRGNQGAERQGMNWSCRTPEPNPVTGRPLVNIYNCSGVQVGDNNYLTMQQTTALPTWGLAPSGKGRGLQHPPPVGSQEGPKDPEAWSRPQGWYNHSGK
To be noted: RIPK3, [ATP] 2.5 µM, compound 10 uM; for remaining activity at 10 µM: read-out: % Enzyme Activity (relative to DMSO controls).

Experiment [10] deals with T10, 382 unique human kinases (Homo sapiens, UniProt O60674).
T10 construct: purchased Reaction Biology (HotSpot contract assay)
T10 sequence (O60674 whole entry): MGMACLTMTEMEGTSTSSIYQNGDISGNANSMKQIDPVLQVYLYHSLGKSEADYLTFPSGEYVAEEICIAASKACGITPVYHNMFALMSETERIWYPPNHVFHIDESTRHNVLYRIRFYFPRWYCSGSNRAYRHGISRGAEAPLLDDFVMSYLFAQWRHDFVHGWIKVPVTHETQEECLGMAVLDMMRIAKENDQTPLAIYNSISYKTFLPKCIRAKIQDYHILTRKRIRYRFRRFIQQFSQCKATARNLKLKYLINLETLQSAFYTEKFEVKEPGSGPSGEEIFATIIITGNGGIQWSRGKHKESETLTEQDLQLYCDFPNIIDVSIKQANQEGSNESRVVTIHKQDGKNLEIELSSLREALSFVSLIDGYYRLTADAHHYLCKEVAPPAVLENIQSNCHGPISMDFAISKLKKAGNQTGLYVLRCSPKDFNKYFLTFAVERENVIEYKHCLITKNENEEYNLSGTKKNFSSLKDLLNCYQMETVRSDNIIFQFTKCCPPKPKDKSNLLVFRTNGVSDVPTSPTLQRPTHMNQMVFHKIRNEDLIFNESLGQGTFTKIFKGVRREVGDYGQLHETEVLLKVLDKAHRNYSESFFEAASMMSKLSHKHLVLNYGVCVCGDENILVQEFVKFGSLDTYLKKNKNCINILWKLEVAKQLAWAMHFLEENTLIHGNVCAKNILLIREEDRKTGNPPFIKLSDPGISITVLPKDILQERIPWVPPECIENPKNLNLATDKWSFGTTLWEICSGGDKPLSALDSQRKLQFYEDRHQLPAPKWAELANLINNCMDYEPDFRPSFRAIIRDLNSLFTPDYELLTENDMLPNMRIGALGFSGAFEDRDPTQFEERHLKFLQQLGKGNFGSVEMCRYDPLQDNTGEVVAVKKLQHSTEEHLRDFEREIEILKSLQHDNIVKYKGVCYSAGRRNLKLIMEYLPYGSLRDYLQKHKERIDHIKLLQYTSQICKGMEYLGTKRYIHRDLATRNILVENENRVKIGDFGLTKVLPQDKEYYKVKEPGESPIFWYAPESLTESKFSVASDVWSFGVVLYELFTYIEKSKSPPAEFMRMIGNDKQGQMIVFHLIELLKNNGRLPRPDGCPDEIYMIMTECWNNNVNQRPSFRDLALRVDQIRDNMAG
The note with it: JAK2, [ATP] 2.5 µM, compound 10 uM; for remaining activity at 10 µM: read-out: % Enzyme Activity (relative to DMSO controls).

Experiment [11] has as its target T11, 382 unique human kinases (Homo sapiens, UniProt O75716).
T11 construct: purchased Reaction Biology (HotSpot contract assay)
To be noted: STK16, [ATP] 5 µM, compound 10 uM; for remaining activity at 10 µM: read-out: % Enzyme Activity (relative to DMSO controls).

T11 sequence (O75716 whole entry): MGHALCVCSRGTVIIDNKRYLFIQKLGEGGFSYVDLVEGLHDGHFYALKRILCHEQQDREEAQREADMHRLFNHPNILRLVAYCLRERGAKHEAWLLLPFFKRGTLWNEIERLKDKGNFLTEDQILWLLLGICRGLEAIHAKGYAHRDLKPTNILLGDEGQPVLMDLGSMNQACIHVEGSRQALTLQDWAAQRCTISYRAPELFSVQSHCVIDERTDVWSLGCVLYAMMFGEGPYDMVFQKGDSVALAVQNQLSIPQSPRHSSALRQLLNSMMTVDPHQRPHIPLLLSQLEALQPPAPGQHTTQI

Take `CC(C)c1cc(-c2n[nH]c(=O)n2-c2ccc3c(ccn3C)c2)c(O)cc1O` [Ganetespib (STA9090)]: the remaining activity at 10 µM in experiment [1] was 85.5%; in [2], 91.5%; in experiment [3] it was 101%; in [4], 92.2%; in experiment [5] it was 90.5%; in experiment [6], 75.3%. Moreover, the remaining activity at 10 µM is 84% in [7] and 62.1% in [8].
Consider `CC(C)c1cc(-c2n[nH]c(=O)n2-c2ccc3c(ccn3C)c2)c(O)cc1O` [Ganetespib], for which the values for the remaining activity at 10 µM in [9], in [10] and in [11] were 59.1%, 57.1% and 32.4%, respectively.
`CCNC(=O)c1noc(-c2cc(C(C)C)c(O)cc2O)c1-c1ccc(CN2CCOCC2)cc1` [Luminespib (AUY-922)]: the “% Enzyme Activity (relative to DMSO controls)” value in [1] was found to be 108.05%; in experiment [2], 61.22%; in [3], 102.38%; in experiment [4], 98.95%; in experiment [5] it was 107.07%; in experiment [6], 84.23%. The “% Enzyme Activity (relative to DMSO controls)” value is recorded as 86.44% in experiment [7] and 61.43% in experiment [8]. Besides, the remaining activity at 10 µM in experiment [1] was found to be 110%; in [2], 73.8%; in experiment [3], 104%; in experiment [4], 101%; in experiment [5], 108%; in [6], 87%. The remaining activity at 10 µM in experiment [7] is 86.5%; in experiment [8], 61.9%.
For the compound `CCNC(=O)c1noc(-c2cc(C(C)C)c(O)cc2O)c1-c1ccc(CN2CCOCC2)cc1` [Luminespib], the results for the “% Enzyme Activity (relative to DMSO controls)” value in [9], in experiment [10] and in experiment [11] were 115.01%, 97.09% and 98.01%, respectively. Also, the remaining activity at 10 µM was found to be 124% in [9], 99.6% in experiment [10] and 98.4% in experiment [11].
